Source: paper PMC9967275, “Screening the Pathogen Box to Discover and Characterize New Cruzain and TbrCatL Inhibitors” (Pathogens, 2023)
Read-outs that look alike come from different tables or passages of the source.

Key:
[1] = target: T1, TbrCatL (Trypanosoma brucei rhodesiense, UniProt Q95PM0); test: TbrCatL enzymatic inhibition assay (cleavage of fluorogenic substrate Z-FR-AMC); format: biochemical; details: for TbrCatL 0’ Inhibition: 0’ (pre-incubation time); for TbrCatL 0’ Inhibition / TbrCatL 10’ Inhibition: sheet "Screening results"; for TbrCatL 10’ Inhibition: 10’ (pre-incubation time); for TbrCatL Inhibition 0’: 0’ (no pre-incubation); for TbrCatL Inhibition 0’ / TbrCatL Inhibition 10’: sheet Screening results; for TbrCatL Inhibition 10’: 10’ (pre-incubation);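 as to TbrCatL 0’ Inhibition: at 5 µM compound concentration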;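 as to TbrCatL 10’ Inhibition: at 5 µM compound concentration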;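 as to TbrCatL Inhibition 0’: at 5 µM compound concentration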;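 as to TbrCatL Inhibition 10’: at 5 µM compound concentration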
T1 construct: Conor Caffrey (University of California San Diego)
Procedure, shortened: (§1)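 Recombinant enzymes assayed by Z-Phe-Arg-AMC cleavage at 25 °C, fluorescence 340/440 nm over 5–7 min, with 10 min or no enzyme–compound preincubation.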

[2] = target: cruzain (Trypanosoma cruzi, UniProt P25779); test: biochemical; details: for Cruzain 0’ Inhibition: 0’ (pre-incubation time); for Cruzain 0’ Inhibition / Cruzain 10’ Inhibition: sheet "Screening results"; for Cruzain 10’ Inhibition: 10’ (pre-incubation time); for Cruzain Inhibition 0’: 0’ (no pre-incubation); for Cruzain Inhibition 0’ / Cruzain Inhibition 10’: sheet Screening results; for Cruzain Inhibition 10’: 10’ (pre-incubation);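 as to Cruzain 0’ Inhibition: at 5 µM compound concentration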;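 as to Cruzain 10’ Inhibition: at 5 µM compound concentration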;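 as to Cruzain Inhibition 0’: at 5 µM compound concentration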;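 as to Cruzain Inhibition 10’: at 5 µM compound concentration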
Procedure, shortened: as §1

T1 sequence (Q95PM0 entry or part of it): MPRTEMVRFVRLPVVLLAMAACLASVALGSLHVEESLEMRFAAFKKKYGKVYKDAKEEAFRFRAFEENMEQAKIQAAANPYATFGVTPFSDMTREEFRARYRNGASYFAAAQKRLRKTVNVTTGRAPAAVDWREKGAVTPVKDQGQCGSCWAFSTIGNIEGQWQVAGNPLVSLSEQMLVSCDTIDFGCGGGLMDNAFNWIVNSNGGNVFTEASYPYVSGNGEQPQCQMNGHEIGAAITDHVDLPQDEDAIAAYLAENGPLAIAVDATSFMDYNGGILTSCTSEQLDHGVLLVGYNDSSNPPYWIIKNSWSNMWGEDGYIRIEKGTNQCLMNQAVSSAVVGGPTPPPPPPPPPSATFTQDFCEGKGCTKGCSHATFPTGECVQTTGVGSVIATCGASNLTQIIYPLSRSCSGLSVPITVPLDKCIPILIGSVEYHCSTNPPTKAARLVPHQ
Sequence of cruzain (P25779 123-337 limits assumed): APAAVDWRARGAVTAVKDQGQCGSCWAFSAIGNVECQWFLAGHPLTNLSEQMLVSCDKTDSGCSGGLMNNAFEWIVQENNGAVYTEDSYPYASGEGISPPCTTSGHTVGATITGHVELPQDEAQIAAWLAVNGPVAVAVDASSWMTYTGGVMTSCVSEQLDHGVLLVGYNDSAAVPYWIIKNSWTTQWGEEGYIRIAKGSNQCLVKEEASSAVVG

| Compound | TbrCatL 0’ Inhibition [1] [%] | TbrCatL 10’ Inhibition [1] [%] | Cruzain 0’ Inhibition [2] [%] | Cruzain 10’ Inhibition [2] [%] | TbrCatL Inhibition 0’ [1] [%] | TbrCatL Inhibition 10’ [1] [%] | Cruzain Inhibition 0’ [2] [%] | Cruzain Inhibition 10’ [2] [%] | further results |
| --- | --- | --- | --- | --- | --- | --- | --- | --- | --- |
| Cc1ccc2[nH]c(C3CCCNC3)c(-c3ccncc3)c2c1 (centres unmarked) [MMV024311] | -12 | 12 | -7.4 | 15 |  |  |  |  |  |
| Cn1ncc2c(N3CCOCC3)nc(NCCc3c[nH]c4ccccc34)nc21 [MMV676382] |  |  |  |  | 4.7 | 7.5 | 17 | 15 |  |
| O=C1[C@@H](Oc2ccccc2)[C@@H](c2ccc(Cl)cc2)N1CCn1cnc2c(NCc3ccccc3)ncnc21 [MMV688352] | 5 | 12 | 0 | 23 |  |  |  |  |  |
| Cc1cc(NCC(C)C)c2[nH]nc(-c3ccccc3)c2n1 [MMV021375] | 17 | 20 | 18 | 23 |  |  |  |  |  |
| Cc1cc(OCC(=O)NCc2ccccc2)c2cc(Br)ccc2n1 [MMV687747] |  |  |  |  | 2 | -0.3 | 6.4 | 6 |  |
| COc1ccc(-c2cnc3cnc(-c4cccc(OC(C)C)c4)cn23)cc1 [MMV688270] | -8 | -8 | -4 | 5 |  |  |  |  |  |
| O=C(C1CCN(c2cc(-n3cccc3)ncn2)CC1)N1CCc2ccccc2C1 [MMV687172] | 0.3 | 15 | -2.4 | -1.9 |  |  |  |  |  |
| CC(C)(C)C(O)C(Oc1ccc(-c2ccccc2)cc1)n1cncn1 (centres unmarked) [MMV688942] |  |  |  |  | 13 | -1.4 | 14 | 9 |  |
| CC(C)(CN)c1nc(-c2ccc(Cl)c(O)c2)c(-c2ccnc(N)n2)[nH]1 [MMV030734] | 7.5 | -9.5 | 5 | -5.6 |  |  |  |  |  |
| Cc1cc(C(=O)Nc2cnn(Cc3ccc(Cl)cc3Cl)c2)no1 [MMV009054] |  |  |  |  | -14 | -16 | -1.8 | -2 |  |
| O=C(OCc1ccccc1)N1CCC(c2cc(-c3ccncc3)c(-c3ccc(F)cc3)[nH]2)CC1 [MMV688509] | -13 | -13 | -3.8 | 3.8 |  |  |  |  |  |
| CC(=O)NC[C@H]1CN(c2ccc(-c3ccc(CNCc4cn[nH]n4)cc3)c(F)c2)C(=O)O1 [MMV688327] |  |  |  |  | -5.5 | 6.4 | -3.5 | 4 |  |
| c1ccc(Oc2ccc(-c3cc(CN4CCOCC4)[nH]n3)cc2)cc1 [MMV676161] | -3 | -2.5 | -1.3 | 1.7 |  |  |  |  |  |
| O=C(Nc1ccc(C(F)(F)F)c(C(F)(F)F)c1)c1cc(Cl)ccc1O [MMV687807] | -4 | -5 | -0.3 | 6 |  |  |  |  |  |
| CN(C)CCNC(=O)N1CCCN(c2ncnc3cc(-c4ccccc4)sc23)CC1 [MMV024195] | 1.1 | -1.4 | -3.2 | 1.9 |  |  |  |  |  |
| Cc1ccc(S(=O)(=O)Nc2ccc(CN3CCN(C(=O)c4cccc(C#N)c4)CC3)cc2)cc1 [MMV689028] |  |  |  |  | -0.6 | -0.3 | -0.6 | 8 |  |

| Compound | TbrCatL 0’ Inhibition [1] [%] | TbrCatL 10’ Inhibition [1] [%] | Cruzain 0’ Inhibition [2] [%] | Cruzain 10’ Inhibition [2] [%] | TbrCatL Inhibition 0’ [1] [%] | TbrCatL Inhibition 10’ [1] [%] | Cruzain Inhibition 0’ [2] [%] | Cruzain Inhibition 10’ [2] [%] | further results |
| --- | --- | --- | --- | --- | --- | --- | --- | --- | --- |
| O=C(C1CCN(c2nnc(-n3cccc3)s2)CC1)N1CCC(Cc2ccccc2)CC1 [MMV676478] | 2.2 | -8 | 0.9 | 2.5 |  |  |  |  |  |
| CC1CCCCN1C(=O)NCCc1coc(-c2ccc(F)cc2)n1 (centres unmarked) [MMV688797] |  |  |  |  | 16 | 15 | 15 | 10 |  |
| CCCn1c(CNc2ccccc2O)nc2ccccc21 [MMV676445] |  |  |  |  | 6 | 3.3 | 1.2 | 3.6 |  |
| Nc1nc2cc(-c3cncc(Oc4ccc(F)cc4)c3)ccc2[nH]1 [MMV687248] | -0.7 | 17 | 17 | 19 |  |  |  |  |  |
| Cc1ccc(C(=O)Nc2ccc(S(=O)(=O)O)c3cc(S(=O)(=O)O)cc(S(=O)(=O)O)c23)cc1NC(=O)c1cccc(NC(=O)Nc2cccc(C(=O)Nc3cc(C(=O)Nc4ccc(S(=O)(=O)O)c5cc(S(=O)(=O)O)cc(S(=O)(=O)O)c45)ccc3C)c2)c1 [MMV637953] |  |  |  |  | -4.4 | -0.2 | 32 | 21 |  |
| O=C(Nc1nnc(-c2ccc(Cl)s2)o1)c1ccc(Cl)s1 [MMV676501] |  |  |  |  | -3.6 | -11 | -8 | -16 |  |
| COc1ccc(Nc2ccccc2NC(=O)c2ccc(=O)[nH]c2)cc1 [MMV676554] |  |  |  |  | 10 | 4.5 | 2.8 | 0.5 |  |
| O=C(NC1CCCCC1)N1CCN(Cc2ccc3c(c2)OCO3)CC1 [MMV676444] |  |  |  |  | 9 | 8 | 0.4 | 5.5 |  |
| Cc1ccc(NC(=O)CC2COc3ccccc3O2)cc1Cl (centres unmarked) [MMV676431] |  |  |  |  | 5 | 5 | 0.5 | 4.3 |  |
| CC(C)C(NC(=O)Cc1cccc2ccccc12)C(=O)Nc1cccc(C#N)c1 (centres unmarked) [MMV020591] |  |  |  |  | -8 | -3.7 | -1.7 | -0.4 |  |
| Clc1cccc(C(c2ccc(CN3CCNCC3)cc2)n2ccnc2)c1 (centres unmarked) [MMV663250] | -13 | -1.1 | -0.3 | 10 |  |  |  |  |  |
| COC(=O)Nc1nc2ccc(C(=O)c3ccccc3)cc2[nH]1 [MMV003152] |  |  |  |  | 4.7 | -5.3 | 3.3 | -1.4 |  |
| CCCCS(=O)(=O)Nc1ccc2cnn(C)c2c1 [MMV687145] |  |  |  |  | -3 | -1.9 | -4.6 | -6 |  |
| CC[C@@H]([C@H](C)O)n1ncn(-c2ccc(N3CCN(c4ccc(OC[C@@H]5CO[C@@](Cn6cncn6)(c6ccc(F)cc6F)C5)cc4)CC3)cc2)c1=O [MMV688774] |  |  |  |  | 3.6 | 8 | 9 | 10 |  |
| Cc1cc(C)n2nc(C(=O)Nc3cc(C(F)(F)F)ccc3N3CCOCC3)nc2n1 [MMV019087] |  |  |  |  | 4.3 | 3 | 1.6 | 2.6 |  |
| COc1ccc(C2=NN(C3CCCCCC3)C(=O)[C@H]3CC=CC[C@@H]23)cc1OCCCCOc1ccc(-c2nn[nH]n2)cc1 [MMV690027] |  |  |  |  | 6.4 | -1.8 |  |  | inhibition at 5 µM ([1]; read-out: Inhibition at 5 µM (Mean ± SEM %) TbrCatL 0′): 6 ± 2%; inhibition at 5 µM ([1]; read-out: Inhibition at 5 µM (Mean ± SEM %) TbrCatL 10′ inc): 0%; inhibition at 5 µM ([2]; read-out: Inhibition at 5 µM (Mean ± SEM %) Cruzain 0′, 5 µM, no pre-incubation, initial screening): 50 ± 5%; inhibition at 5 µM ([2]; read-out: Inhibition at 5 µM (Mean ± SEM %) Cruzain 10′ inc, 5 µM, 10′ pre-incubation, initial screening): 33 ± 2%; inhibition at 5 µM ([2]; read-out: Inhibition of cruzain or TbrCatL (either enzyme) in the initial screening, 5 µM, either cruzain or TbrCatL, with or without pre-incubation): ≥ 40% |
